Measurements taken from article doi:10.1101/2025.09.30.679521v1, “Crystallographic characterisation and development of bi-substrate inhibitors of coronavirus nsp14 methyltransferase” (biorxiv, 2025).
Values after ≈ are worked out from the molar mass of the structure shown. Like-named read-outs stand apart in the source and are kept apart here.

Tests used:
SARS-CoV-2 nsp14 = target: T1, SARS-CoV-2 nsp14 (Severe acute respiratory syndrome coronavirus 2, UniProt P0DTD1); test: RapidFire MS methyltransferase assay; type: biochemical
T1 construct: gene rep
Excerpt: RapidFire MS methyltransferase assay on SARS-CoV-2 nsp14

in vitro [1] = test: in vitro; set-up: mouse liver microsomal stability; details: liver microsomes; Mouse liver microsomes; read-out: Mouse liver Mic T1/2 / min
Excerpt: We initiated our structure-activity relationship (SAR) studies by investigating various replacements for the benzothiazole group, compounds 2-17, Table 1. […] Relatively flat SAR is observed across this subset of compounds, indeed a 6,5 or 6,6 aromatic system with the appropriate connectivity as compound 1 display relatively similar potencies. […] In general, the mouse microsomal clearance was rather low for this set of molecules, with no significant instabilities introduced, with perhaps the exception of compound 4. With no significant advantages in either potency or mouse microsomal clearance (Table S2) identified for this subset, the benzothiazole was taken forward into subsequent SAR studies. Table 2. Enzymatic inhibition against SARS-CoV-2 nsp14, human RNMT, CHI-logD and mouse microsomal stability.

HCoV-229E nsp14 = target: T2, HCoV-229E nsp14 (Human coronavirus 229E, UniProt P0C6X1); test: RapidFire MS methyltransferase assay; type: biochemical
T2 construct: gene rep
Excerpt: RapidFire MS methyltransferase assay on HCoV-229E nsp14

human RNMT [2] = target: T3, human RNMT (Homo sapiens, UniProt O43148); test: RNMT methyltransferase assay (Gray et al.); type: biochemical
Excerpt: RNMT methyltransferase assay (Gray et al.) on human RNMT

physchem [3] = test: physchem
HCoV-NL63 nsp14 = HCoV-NL63 nsp14 (Human coronavirus NL63, UniProt P0C6X5); test: RapidFire MS methyltransferase assay; type: biochemical
Excerpt: RapidFire MS methyltransferase assay on HCoV-NL63 nsp14

physchem [4] = test: physchem; remark: listed apart in the source
human RNMT [5] = target: T3, human RNMT; test: biochemical; set-up: human RNMT methyltransferase inhibition
physchem [6] = test: physchem; remark: listed apart in the source
MERS-CoV nsp14 = target: T4, MERS-CoV nsp14 (Betacoronavirus England 1, UniProt K9N7C7); test: biochemical
T4 construct: gene rep

physchem [7] = test: physchem; set-up: solubility
Excerpt: Table 5. Selected compounds with cellular potency. The apparent EC50 values in the cytopathic effect assay are shown, along with the toxicity effect CC50

in vitro [8] = test: in vitro; set-up: cytotoxicity alongside the cytopathic effect assay in Vero E6 cells; details: african green monkey, vero e6 cells; read-out: CPE assay CC50 /
Excerpt: This may be due to the increased rigidity of the alkene linkage and a lower entropic penalty upon binding. As a matched pair to the previously reported compounds 32 and 34, we selected potent and stable compound 33 and 40, with the same change of adenosine base, Base A, to Base B and measure the antiviral activity. […] One potential reason for this disparity may be attributed to the differing experimental conditions used in the two assays and requires further investigation. […] Therefore, consistent with the body of the literature, we observed no significant antiviral activity against SARS-CoV-2 for this class of compounds. We hypothesise that as the compounds bind in both the SAM and the RNA pocket of nsp14 and are therefore competitive with both substrates, in the cellular context there is a significant competition with intracellular SAM/SAH and the viral RNA, which is likely present at a higher concentration than used in the biochemical assay. The concentration of SAM used in the SARS-CoV-2 nsp14 assay is 1.0 µM and although measurements of SAM or SAH concentrations in Vero E6 cells haven’t been reported, others have reported intracellular concentrations of SAM of 354 µM in other cell lines.[30] The concentration of the viral RNA substrate in cellulo and increased effective concentrations from the proximity of other nsp proteins involved in viral RNA production may also play a role that is further not captured in the bioche Table 5. Selected compounds with cellular potency. The apparent EC50 values in the cytopathic effect assay are shown, along with the toxicity effect CC50

SARS-CoV-2 [9] = test: microbe, parasite or virus in culture; set-up: species or system Vero E6; antiviral cytopathic effect assay with SARS-CoV-2 in Vero E6 cells; details: Severe acute respiratory syndrome coronavirus 2, Vero C1008; read-out: CPE assay EC50 /
in vitro [10] = test: in vitro; set-up: MDCK permeability; details: dog, MDCK
SARS-CoV-2 [11] = test: microbe, parasite or virus in culture; set-up: species or system Vero E6; antiviral cytopathic effect assay with SARS-CoV-2 in Vero E6 cells; details: Severe acute respiratory syndrome coronavirus 2, Vero C1008; read-out: CPE assay EC50 /; remark: listed apart in the source
in vitro [12] = test: in vitro; set-up: MDCK permeability; details: dog, MDCK; remark: listed apart in the source
[13] = SAM and RNA cap substrate at KM (SAM 1.0 µM), read-out: IC50

T3 sequence (O43148 whole entry): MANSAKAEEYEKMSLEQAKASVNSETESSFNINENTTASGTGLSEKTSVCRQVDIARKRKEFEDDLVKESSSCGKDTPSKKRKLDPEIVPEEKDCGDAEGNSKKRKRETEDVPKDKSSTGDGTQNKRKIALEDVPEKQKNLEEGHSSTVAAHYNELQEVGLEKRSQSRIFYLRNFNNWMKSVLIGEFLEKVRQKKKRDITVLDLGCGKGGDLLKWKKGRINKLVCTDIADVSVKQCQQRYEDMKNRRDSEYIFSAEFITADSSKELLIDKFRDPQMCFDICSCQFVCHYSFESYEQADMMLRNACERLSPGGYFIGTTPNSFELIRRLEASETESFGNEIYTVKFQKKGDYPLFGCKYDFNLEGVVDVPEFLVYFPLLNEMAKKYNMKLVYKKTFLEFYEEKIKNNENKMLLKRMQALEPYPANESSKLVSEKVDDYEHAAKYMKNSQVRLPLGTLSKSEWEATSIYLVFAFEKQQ
T2 sequence (P0C6X1 5593-6110): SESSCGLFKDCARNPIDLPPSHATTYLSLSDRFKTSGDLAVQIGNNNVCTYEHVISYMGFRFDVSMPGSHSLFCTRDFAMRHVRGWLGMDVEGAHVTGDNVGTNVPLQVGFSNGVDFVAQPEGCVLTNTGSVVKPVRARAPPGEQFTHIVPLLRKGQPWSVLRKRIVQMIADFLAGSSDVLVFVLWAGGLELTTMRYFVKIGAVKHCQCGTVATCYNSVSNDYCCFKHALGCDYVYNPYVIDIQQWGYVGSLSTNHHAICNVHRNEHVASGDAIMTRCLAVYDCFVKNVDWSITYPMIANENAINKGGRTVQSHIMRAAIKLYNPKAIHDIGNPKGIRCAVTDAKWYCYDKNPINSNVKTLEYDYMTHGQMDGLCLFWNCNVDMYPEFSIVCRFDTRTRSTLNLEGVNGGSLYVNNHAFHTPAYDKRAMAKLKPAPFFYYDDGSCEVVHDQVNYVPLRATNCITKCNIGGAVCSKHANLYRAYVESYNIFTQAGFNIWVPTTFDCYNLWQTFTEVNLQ
Chain of HCoV-NL63 nsp14 (P0C6X5 5568-6085): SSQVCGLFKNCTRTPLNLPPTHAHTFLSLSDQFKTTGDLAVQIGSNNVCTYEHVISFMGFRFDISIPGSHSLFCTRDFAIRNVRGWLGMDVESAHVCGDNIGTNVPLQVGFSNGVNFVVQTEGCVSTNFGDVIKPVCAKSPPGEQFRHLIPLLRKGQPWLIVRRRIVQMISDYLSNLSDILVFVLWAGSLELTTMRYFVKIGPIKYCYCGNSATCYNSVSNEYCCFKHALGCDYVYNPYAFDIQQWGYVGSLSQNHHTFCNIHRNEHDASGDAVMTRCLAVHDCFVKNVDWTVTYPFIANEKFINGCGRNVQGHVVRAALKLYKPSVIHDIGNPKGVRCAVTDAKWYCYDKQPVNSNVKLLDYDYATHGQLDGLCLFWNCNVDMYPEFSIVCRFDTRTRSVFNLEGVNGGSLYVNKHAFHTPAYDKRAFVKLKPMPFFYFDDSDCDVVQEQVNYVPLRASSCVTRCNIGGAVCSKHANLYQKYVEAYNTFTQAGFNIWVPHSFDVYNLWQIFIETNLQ
T4 sequence (K9N7C7 5909-6432 limits assumed): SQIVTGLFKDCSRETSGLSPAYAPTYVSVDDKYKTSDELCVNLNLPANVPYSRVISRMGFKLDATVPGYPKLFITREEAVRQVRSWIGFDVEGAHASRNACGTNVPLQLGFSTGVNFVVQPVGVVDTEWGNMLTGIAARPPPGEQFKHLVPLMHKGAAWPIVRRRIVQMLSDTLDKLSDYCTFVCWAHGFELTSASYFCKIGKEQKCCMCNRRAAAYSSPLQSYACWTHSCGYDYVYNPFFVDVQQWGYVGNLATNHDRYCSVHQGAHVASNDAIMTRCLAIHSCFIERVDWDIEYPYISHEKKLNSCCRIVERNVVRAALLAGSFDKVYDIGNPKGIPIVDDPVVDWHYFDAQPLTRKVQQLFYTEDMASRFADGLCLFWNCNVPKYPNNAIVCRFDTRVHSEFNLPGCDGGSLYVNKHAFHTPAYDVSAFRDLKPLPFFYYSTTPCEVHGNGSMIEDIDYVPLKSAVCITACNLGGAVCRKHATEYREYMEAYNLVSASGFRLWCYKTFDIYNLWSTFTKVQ

Structure (SMILES) | half-life (in vitro [1]) [min] | IC50 (human RNMT [2]) [nM] | IC50 (SARS-CoV-2 nsp14; read-out: IC50) [nM] | IC50 (HCoV-229E nsp14; read-out: IC50) [nM] | IC50 (HCoV-NL63 nsp14; read-out: IC50) [nM] | logD (physchem [4]) | also measured
Cc1ccc2nc(SC[C@H]3O[C@@H](n4cnc5c(N)ncnc54)[C@H](O)[C@@H]3O)ccc2c1 [compound 8] | > 30 | > 100000 |  |  |  |  | IC50 (SARS-CoV-2 nsp14): 1100 ± 70 nM; IC50 (HCoV-229E nsp14): 1900 ± 100 nM; logD (physchem [3]): 1.7; IC50 (HCoV-NL63 nsp14): 520 ± 10 nM
Cc1ccc2ccc(SC[C@H]3O[C@@H](n4cnc5c(N)ncnc54)[C@H](O)[C@@H]3O)nc2c1 [compound 9] | > 30 | 70500 |  |  |  |  | IC50 (SARS-CoV-2 nsp14): 390 ± 60 nM; IC50 (HCoV-229E nsp14): 1400 ± 100 nM; logD (physchem [3]): 1.7; IC50 (HCoV-NL63 nsp14): 500 ± 110 nM
Nc1ncnc2c1ncn2[C@@H]1O[C@H](CSc2ccc3cccnc3c2)[C@@H](O)[C@H]1O [compound 10] | > 30 | > 100000 | 360 ± 110 | 580 ± 100 | 170 ± 40 |  | logD (physchem [3]): 0.6
CNc1ncnc2c1ncn2[C@@H]1O[C@H](CSc2nc3ccccc3s2)[C@@H](O)[C@H]1O [compound 18] |  |  | 2100 ± 200 |  |  | 1.3 | 
CN(C)c1ncnc2c1ncn2[C@@H]1O[C@H](CSc2nc3ccccc3s2)[C@@H](O)[C@H]1O [compound 19] |  |  |  |  |  | 1.8 | IC50 (SARS-CoV-2 nsp14; [13]): > 100000 nM
OC1C(CSc2nc3ccccc3s2)OC(n2cnc3c(NC4CCCC4)ncnc32)C1O (stereo not drawn) [compound 20] |  |  |  |  |  | 2.5 | IC50 (SARS-CoV-2 nsp14; [13]): > 100000 nM
CC(C)Nc1ncnc2c1ncn2[C@@H]1O[C@H](CSc2nc3ccccc3s2)[C@@H](O)[C@H]1O [compound 21] |  |  | > 100000 |  |  | 2.1 | IC50 (human RNMT [5]): > 100000 nM
O[C@@H]1[C@H](O)[C@@H](CSc2nc3ccccc3s2)O[C@H]1n1cnc2c(NC3COC3)ncnc21 [compound 22] |  |  |  |  |  | 1.4 | 
Nc1ncnc2c1ncn2[C@@H]1O[C@H](COc2nc3ccccc3s2)[C@@H](O)[C@H]1O [compound 23] |  |  | > 100000 |  |  | 0.5 | IC50 (human RNMT [5]): > 100000 nM
Nc1ncnc2c1ncn2[C@@H]1O[C@H](CNc2nc3ccccc3s2)[C@@H](O)[C@H]1O [compound 24] |  | 54600 | > 100000 |  |  | 0.7 | 
Nc1ncnc2c1ncn2[C@@H]1O[C@H](CCc2nc3ccccc3s2)[C@@H](O)[C@H]1O [compound 25] | > 30 |  | 310 ± 70 |  |  | 1 | IC50 (human RNMT [5]): > 100000 nM
Nc1ncnc2c1ncn2[C@@H]1C[C@H](CSc2nc3ccccc3s2)[C@@H](O)[C@H]1O [compound 26] | > 30 | > 100000 | 53 ± 30 | 21 ± 4 | 8 ± 3 |  | logD (physchem [6]): 1.5; IC50 (MERS-CoV nsp14): 730 nM
Nc1ncnc2c1ncn2[C@@H]1O[C@H](CNS(=O)(=O)c2ccc3ccccc3c2)[C@@H](O)[C@H]1O [compound 32, N-[[(2R,3S,4R,5R)-5-(6-Aminopurin-9-yl)-3,4-dihydroxy-tetrahydrofuran-2-yl]methyl]naphthalene-2-sulfonamide] | > 30 |  |  |  |  |  | solubility (physchem [7]): 213 µM (≈ 97.2 µg/mL); CC50 (in vitro [8]): > 100000 nM; EC50 (SARS-CoV-2 [9]): > 100000 nM
Nc1ncnc2c1ncn2[C@@H]1O[C@H](CNS(=O)(=O)c2ccc3ccccc3c2)[C@@H](O)[C@H]1O [compound 32] |  | > 100000 | 130 ± 40 | 300 ± 10 | 530 ± 120 |  | Papp (in vitro [10]): 1.2 ×10⁻⁶ cm/s; logD (physchem [6]): 1.5
Nc1ncnc2c1ncn2[C@@H]1O[C@H](/C=C/c2nc3ccccc3s2)[C@@H](O)[C@H]1O [compound 33, (2R,3R,4S,5R)-2-(6-Aminopurin-9-yl)-5-[(E)-2-(1,3-benzothiazol-2-yl)vinyl]tetrahydrofuran-3,4-diol] | > 30 |  |  |  |  |  | solubility (physchem [7]): 18.2 µM (≈ 7.22 µg/mL); CC50 (in vitro [8]): 21000 nM; EC50 (SARS-CoV-2 [9]): 8700 nM
Nc1ncnc2c1ncn2[C@@H]1O[C@H](/C=C/c2nc3ccccc3s2)[C@@H](O)[C@H]1O [compound 33] |  | > 100000 | 36 ± 10 | 51 ± 9 | 17 ± 1 |  | Papp (in vitro [10]): 4.9 ×10⁻⁶ cm/s; logD (physchem [6]): 1.3
Nc1ncnn2c([C@@H]3O[C@H](CNS(=O)(=O)c4ccc5ccccc5c4)[C@@H](O)[C@H]3O)ccc12 [compound 34, N-[[(2R,3S,4R,5S)-5-(4-Aminopyrrolo[2,1-f][1,2,4]triazin-7-yl)-3,4-dihydroxy-tetrahydrofuran-2-yl]methyl]naphthalene-2-sulfonamide] | 9.9 |  |  |  |  |  | EC50 (SARS-CoV-2 [11]): 30000 nM; solubility (physchem [7]): 226 µM (≈ 103 µg/mL); CC50 (in vitro [8]): > 100000 nM
Nc1ncnn2c([C@@H]3O[C@H](CNS(=O)(=O)c4ccc5ccccc5c4)[C@@H](O)[C@H]3O)ccc12 [compound 34] |  | 27700 | 170 ± 30 | 320 ± 10 | 760 ± 310 |  | Papp (in vitro [12]): 1 ×10⁻⁶ cm/s; logD (physchem [6]): 1.6
Nc1ncnn2c([C@@H]3O[C@H](/C=C/c4nc5ccccc5s4)[C@@H](O)[C@H]3O)ccc12 [compound 40, (2S,3R,4S,5R)-2-(4-aminopyrrolo[2,1-f][1,2,4]triazin-7-yl)-5-[(E)-2-(1,3-benzothiazol-2-yl)vinyl]tetrahydrofuran-3,4-diol] | > 30 |  |  |  |  |  | EC50 (SARS-CoV-2 [11]): > 10000 nM; solubility (physchem [7]): 4.7 µM (≈ 1.86 µg/mL); CC50 (in vitro [8]): > 10000 nM
Nc1ncnn2c([C@@H]3O[C@H](/C=C/c4nc5ccccc5s4)[C@@H](O)[C@H]3O)ccc12 [compound 40] |  |  | 83 ± 100 | 49 ± 1 | 13 ± 6 |  | Papp (in vitro [12]): 12.8 ×10⁻⁶ cm/s; logD (physchem [6]): 1.5
